Test results: patent US11702429B2, “mTORC modulators and uses thereof” (Aeovian Pharmaceuticals, Inc., priority 2019, dated 2023)
Like-named read-outs stand apart in the source and are kept apart here.

Tests used:
mTORC1 = molecular target: T1, mTORC1 (Homo sapiens, UniProt P42345+P62942); assay: Inhibition assay for mTORC1: phosphorylation of pS6K at Thr389, AlphaLISA in PC3 cells; assay type: cell-based; conditions: read-out: pIC50 mTORC1 (converted)
T1 construct: endogenous in cells; host or cells: PC3 cells (human prostate adenocarcinoma)
Procedure: (§1) The IC50s of the inhibition of mTORC1 and mTORC2 were determined in vitro by determining the phosphorylation of pS6K at position Thr389 (mTORC1 inhibition) and pAkt at Ser473 (mTORC2 inhibition). In vitro studies were performed with AlphaLISA® technology using PC3 cells (Prostate Adenocarcinoma; Human (Homo sapiens)). The cells were seeded in 96 well plates and were treated for 24 hours with the different compounds. […] All analysis were performed using GraphPad Prism 7.0 (GraphPad Software, San Diego, USA).

mTORC2 = molecular target: T2, mTORC2 (Homo sapiens, UniProt P42345+P62942); assay: Inhibition assay for mTORC2: phosphorylation of pAkt at Ser473, AlphaLISA in PC3 cells; assay type: cell-based; conditions: read-out: pIC50 mTORC2 (converted)
T2 construct: endogenous in cells; host or cells: PC3 cells (human prostate adenocarcinoma)
Procedure: as §1

[1] = PC3 cells, treated 24 hours, pS6K Thr389, AlphaLISA, C16 diastereomer mixtures not separated
[2] = PC3 cells, treated 24 hours, pAkt Ser473, AlphaLISA, C16 diastereomer mixtures not separated

T2 sequence (P62942 2-108 limits assumed, other chains not shown): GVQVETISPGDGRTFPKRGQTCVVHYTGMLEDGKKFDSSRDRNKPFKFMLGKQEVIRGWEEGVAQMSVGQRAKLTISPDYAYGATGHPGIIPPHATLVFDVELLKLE

IC50 (mTORC1) [µM]	IC50 (mTORC2) [µM]	IC50 (mTORC1; [1]) [µM]	IC50 (mTORC2; [2]) [µM]	Compound
0.000316 to 0.00316	> 10			CO[C@@H]1C[C@H](C[C@@H](C)[C@@H]2CC(=O)[C@H](C)/C=C(\C)[C@@H](O)[C@@H](OC)C(=O)[C@H](C)C[C@H](C)/C=C/C=C/C=C(\C)C(OCCOCCO)C[C@@H]3CC[C@@H](C)[C@@](O)(O3)C(=O)C(=O)N3CCCCC3C(=O)O2)CC[C@H]1O (stereo partly drawn) [Compound 224]
< 0.000316	< 1			COCCOCCNC(=O)O[C@@H]1CC[C@@H](C[C@@H](C)[C@@H]2CC(=O)[C@H](C)/C=C(\C)[C@@H](O)[C@@H](OC)C(=O)[C@H](C)C[C@H](C)/C=C/C=C/C=C(\C)C(OC)C[C@@H]3CC[C@@H](C)[C@@](O)(O3)C(=O)C(=O)N3CCCCC3C(=O)O2)C[C@H]1OC (stereo partly drawn) [Compound 346]
< 0.000316	< 1			COC1C[C@@H]2CC[C@@H](C)[C@@](O)(O2)C(=O)C(=O)N2CCCCC2C(=O)O[C@H]([C@H](C)C[C@@H]2CC[C@@H](OCCN3CCOCC3)[C@H](OC)C2)CC(=O)[C@H](C)/C=C(\C)[C@@H](O)[C@@H](OC)C(=O)[C@H](C)C[C@H](C)/C=C/C=C/C=C/1C (stereo partly drawn) [Compound 325]
< 0.000316	< 1			COC1C[C@@H]2CC[C@@H](C)[C@@](O)(O2)C(=O)C(=O)N2CCCCC2C(=O)O[C@H]([C@H](C)C[C@@H]2CC[C@@H](OC(=O)N(C)CCN3CCCCC3)[C@H](OC)C2)CC(=O)[C@H](C)/C=C(\C)[C@@H](O)[C@@H](OC)C(=O)[C@H](C)C[C@H](C)/C=C/C=C/C=C/1C (stereo partly drawn) [Compound 318]
< 0.000316	< 1			COC1C[C@@H]2CC[C@@H](C)[C@@](O)(O2)C(=O)C(=O)N2CCCCC2C(=O)O[C@H]([C@H](C)C[C@@H]2CC[C@@H](OC(=O)NCCN3CCN(C)CC3)[C@H](OC)C2)CC(=O)[C@H](C)/C=C(\C)[C@@H](O)[C@@H](OC)C(=O)[C@H](C)C[C@H](C)/C=C/C=C/C=C/1C (stereo partly drawn) [Compound 367]
		0.000316 to 0.00316	> 10	CO[C@@H]1C[C@H](C[C@@H](C)[C@@H]2CC(=O)[C@H](C)/C=C(\C)[C@@H](O)[C@@H](OC)C(=O)[C@H](C)C[C@H](C)/C=C/C=C/C=C(\C)C(OCCO)C[C@@H]3CC[C@@H](C)[C@@](O)(O3)C(=O)C(=O)N3CCCC[C@H]3C(=O)O2)CC[C@H]1OCCN1CCCCC1 (mixture of isomers) [Compound 61]
< 0.000316	1 to 10			COCCCOC1C[C@@H]2CC[C@@H](C)[C@@](O)(O2)C(=O)C(=O)N2CCCCC2C(=O)O[C@H]([C@H](C)C[C@@H]2CC[C@@H](O)[C@H](OC)C2)CC(=O)[C@H](C)/C=C(\C)[C@@H](O)[C@@H](OC)C(=O)[C@H](C)C[C@H](C)/C=C/C=C/C=C/1C (stereo partly drawn) [Compound 225]
0.000316 to 0.00316	1 to 10			CO[C@@H]1C[C@H](C[C@@H](C)[C@@H]2CC(=O)[C@H](C)/C=C(\C)[C@@H](O)[C@@H](OC)C(=O)[C@H](C)C[C@H](C)/C=C/C=C/C=C(\C)C(OCC(C)(C)O)C[C@@H]3CC[C@@H](C)[C@@](O)(O3)C(=O)C(=O)N3CCCCC3C(=O)O2)CC[C@H]1O (stereo partly drawn) [Compound 216]
0.000316 to 0.00316	> 10			CO[C@@H]1C[C@H](C[C@@H](C)[C@@H]2CC(=O)[C@H](C)/C=C(\C)[C@@H](O)[C@@H](OC)C(=O)[C@H](C)C[C@H](C)/C=C/C=C/C=C(\C)C(OCC3CCOCC3)C[C@@H]3CC[C@@H](C)[C@@](O)(O3)C(=O)C(=O)N3CCCCC3C(=O)O2)CC[C@H]1O (stereo partly drawn) [Compound 226]
< 0.000316	< 1			COC1C[C@@H]2CC[C@@H](C)[C@@](O)(O2)C(=O)C(=O)N2CCCCC2C(=O)O[C@H]([C@H](C)C[C@@H]2CC[C@@H](OCCN3CCC(O)CC3)[C@H](OC)C2)CC(=O)[C@H](C)/C=C(\C)[C@@H](O)[C@@H](OC)C(=O)[C@H](C)C[C@H](C)/C=C/C=C/C=C/1C (stereo partly drawn) [Compound 353]
< 0.000316	< 1			COC1C[C@@H]2CC[C@@H](C)[C@@](O)(O2)C(=O)C(=O)N2CCCCC2C(=O)O[C@H]([C@H](C)C[C@@H]2CC[C@@H](OCCCN3CCC(O)CC3)[C@H](OC)C2)CC(=O)[C@H](C)/C=C(\C)[C@@H](O)[C@@H](OC)C(=O)[C@H](C)C[C@H](C)/C=C/C=C/C=C/1C (stereo partly drawn) [Compound 368]
		< 0.000316	1 to 10	COCCOC1C[C@@H]2CC[C@@H](C)[C@@](O)(O2)C(=O)C(=O)N2CCCC[C@H]2C(=O)O[C@H]([C@H](C)C[C@@H]2CC[C@@H](OCCCN3CCN(C(C)C)CC3)[C@H](OC)C2)CC(=O)[C@H](C)/C=C(\C)[C@@H](O)[C@@H](OC)C(=O)[C@H](C)C[C@H](C)/C=C/C=C/C=C/1C (mixture of isomers) [Compound 39]
< 0.000316	< 1			COCO[C@@H]1CC[C@@H](C[C@@H](C)[C@@H]2CC(=O)[C@H](C)/C=C(\C)[C@@H](O)[C@@H](OC)C(=O)[C@H](C)C[C@H](C)/C=C/C=C/C=C(\C)C(OC)C[C@@H]3CC[C@@H](C)[C@@](O)(O3)C(=O)C(=O)N3CCCCC3C(=O)O2)C[C@H]1OC (stereo partly drawn) [Compound 301]
< 0.000316	< 1			COC1C[C@@H]2CC[C@@H](C)[C@@](O)(O2)C(=O)C(=O)N2CCCCC2C(=O)O[C@H]([C@H](C)C[C@@H]2CC[C@@H](OCCCN3CCN(C)CC3)[C@H](OC)C2)CC(=O)[C@H](C)/C=C(\C)[C@@H](O)[C@@H](OC)C(=O)[C@H](C)C[C@H](C)/C=C/C=C/C=C/1C (stereo partly drawn) [Compound 332]
		0.000316 to 0.00316	> 10	CO[C@@H]1C[C@H](C[C@@H](C)[C@@H]2CC(=O)[C@H](C)/C=C(\C)[C@@H](O)[C@@H](OC)C(=O)[C@H](C)C[C@H](C)/C=C/C=C/C=C(\C)C(OC[C@@H](C)O)C[C@@H]3CC[C@@H](C)[C@@](O)(O3)C(=O)C(=O)N3CCCC[C@H]3C(=O)O2)CC[C@H]1OCCO (mixture of isomers) [Compound 49]
> 0.00316	1 to 10			CO[C@@H]1C[C@H](C[C@@H](C)[C@@H]2CC(=O)[C@H](C)/C=C(\C)[C@@H](O)[C@@H](OC)C(=O)[C@H](C)C[C@H](C)/C=C/C=C/C=C(\C)C(c3cc(C)cs3)C[C@@H]3CC[C@@H](C)[C@@](O)(O3)C(=O)C(=O)N3CCCCC3C(=O)O2)CC[C@H]1O (stereo partly drawn) [Compound 203]
< 0.000316	< 1			COC1C[C@@H]2CC[C@@H](C)[C@@](O)(O2)C(=O)C(=O)N2CCCCC2C(=O)O[C@H]([C@H](C)C[C@@H]2CC[C@@H](OC(=O)NCCN3CCCCC3)[C@H](OC)C2)CC(=O)[C@H](C)/C=C(\C)[C@@H](O)[C@@H](OC)C(=O)[C@H](C)C[C@H](C)/C=C/C=C/C=C/1C (stereo partly drawn) [Compound 365]
< 0.000316	1 to 10			CO[C@@H]1C[C@H](C[C@@H](C)[C@@H]2CC(=O)[C@H](C)/C=C(\C)[C@@H](O)[C@@H](OC)C(=O)[C@H](C)C[C@H](C)/C=C/C=C/C=C(\C)C(OC[C@H](O)c3ccccc3)C[C@@H]3CC[C@@H](C)[C@@](O)(O3)C(=O)C(=O)N3CCCCC3C(=O)O2)CC[C@H]1O (stereo partly drawn) [Compound 214]
< 0.000316	< 1			COC1C[C@@H]2CC[C@@H](C)[C@@](O)(O2)C(=O)C(=O)N2CCCCC2C(=O)O[C@H]([C@H](C)C[C@@H]2CC[C@@H](OCCCN(C)C)[C@H](OC)C2)CC(=O)[C@H](C)/C=C(\C)[C@@H](O)[C@@H](OC)C(=O)[C@H](C)C[C@H](C)/C=C/C=C/C=C/1C (stereo partly drawn) [Compound 363, (1R,9S,12S,15R,16E,18R,19R, 21R,23S,24E,26E,28E,30S,32S,35R)-12-[(1R)-2-[(1S,3R,4R)-4-[3-(dimethylamino)propoxy]-3-methoxy-cyclohexyl]-1-methyl-ethyl]-1,18-dihydroxy-19,30-dimethoxy-15,17,21,23,29,35-hexamethyl-11,36-dioxa-4-azatricyclo[30.3.1.0^4,9]hexatriaconta-16,24,26,28-tetraene-2,3,10,14,20-pentone]
< 0.000316	< 1			COC1C[C@@H]2CC[C@@H](C)[C@@](O)(O2)C(=O)C(=O)N2CCCCC2C(=O)O[C@H]([C@H](C)C[C@@H]2CC[C@@H](OCCCCN3CCOCC3)[C@H](OC)C2)CC(=O)[C@H](C)/C=C(\C)[C@@H](O)[C@@H](OC)C(=O)[C@H](C)C[C@H](C)/C=C/C=C/C=C/1C (stereo partly drawn) [Compound 300]
< 0.000316	< 1			COCCCO[C@@H]1CC[C@@H](C[C@@H](C)[C@@H]2CC(=O)[C@H](C)/C=C(\C)[C@@H](O)[C@@H](OC)C(=O)[C@H](C)C[C@H](C)/C=C/C=C/C=C(\C)C(OC)C[C@@H]3CC[C@@H](C)[C@@](O)(O3)C(=O)C(=O)N3CCCCC3C(=O)O2)C[C@H]1OC (stereo partly drawn) [Compound 308, (1R,9S,12S,15R,16E,18R,19R,21R,23S,24E,26E,28E,30S,32S,35R)-1,18-dihydroxy-19,30-dimethoxy-12-[(1R)-2-[(1S,3R,4R)-3-methoxy-4-(3-methoxypropoxy)cyclohexyl]-1-methyl-ethyl]-15,17,21,23,29,35-hexamethyl-11,36-dioxa-4-azatricyclo[30.3.1.0^4,9]hexatriaconta-16,24,26,28-tetraene-2,3,10,14,20-pentone]
		< 0.000316	1 to 10	CO[C@@H]1C[C@H](C[C@@H](C)[C@@H]2CC(=O)[C@H](C)/C=C(\C)[C@@H](O)[C@@H](OC)C(=O)[C@H](C)C[C@H](C)/C=C/C=C/C=C(\C)C(OCCCCO)C[C@@H]3CC[C@@H](C)[C@@](O)(O3)C(=O)C(=O)N3CCCC[C@H]3C(=O)O2)CC[C@H]1OCCCN1CCOCC1 (mixture of isomers) [Compound 27]
		< 0.000316		CO[C@@H]1C[C@H](C[C@@H](C)[C@@H]2CC(=O)[C@H](C)/C=C(\C)[C@@H](O)[C@@H](OC)C(=O)[C@H](C)C[C@H](C)/C=C/C=C/C=C(\C)C(OCCO)C[C@@H]3CC[C@@H](C)[C@@](O)(O3)C(=O)C(=O)N3CCCC[C@H]3C(=O)O2)CC[C@H]1OCCCN1CCO[C@H](C)C1 (mixture of isomers) [Compound 13]
